Measurements taken from patent US20040147452A1, “Non-amphoteric glutathione derivative compositions for tropical application” (priority 2002, published 2004).
Where two headings read alike, the source gives them in different places.

Experiments:
[1] = tested on: X-linked ichthyosis with severe dry skin; conditions: 3% cream under test chambers on forearm, subject
Protocol: A solution containing a non-amphoteric glutathione derivative was prepared. N-Acetyl-glutathione diethyl ester 3 g was dissolved in warm propylene glycol 17 ml, and the solution was mixed with 80 g oil-in-water cream base or hydrophilic ointment. The cream contained 3% non-amphoteric N-acetyl-glutathione diethyl ester.
A subject who had X-linked ichthyosis with severe dry skin participated in this study. Test spots were I cm square sites on extensor surface of forearm, a grid pattern formed by Hayes Test Chambers on Hayes adhesive strips. Each test chamber contained a square piece of filter paper which was fully saturated with the non-amphoteric glutathione derivative cream. Test chambers were impressed on the skin to leave outlines which were marked with SANFORD® SHARPIE® permanent marker. Sites were re-marked at each successive application of the test cream. Chambers were removed twice weekly, and replaced with a new adhesive strip of chambers with filter paper saturated with the test cream. The test was carried out for two weeks.

[2] = tested on: forearm skin; conditions: 5% solution with L-arginine; for increase in skin thickness: forearm
Protocol: The combined thickness of two whole-skin layers including thickness of the two hinge leaves was measured with micrometer calipers. The thickness of the two hinge leaves was subtracted to determine the actual thickness of two whole-skin layers. Triplicate measurements on treated sites were done and an average number was used for calculation of the skin thickness.
The solution thus prepared contained 5% non-amphoteric glutathione derivative. For comparative study, glutathione 5 g and L-arginine 1 g were dissolved in 94 ml solution prepared from water 70 parts and propylene glycol 30 parts. The solution thus prepared contained 5% amphoteric glutathione.
A subject, applied topically twice daily the above 5% amphoteric glutathione solution to their left forearm and 5% non-amphoteric glutathione derivative to their right forearm for four weeks.
A solution containing a non-amphoteric glutathione derivative was prepared. […] The solution thus prepared contained 5% non-amphoteric glutathione derivative.
A subject, applied topically twice daily the above 5% non-amphoteric glutathione derivative to their right forearm for eight weeks.
A subject, applied topically twice daily the above 5% non-amphoteric glutathione derivative to their left forearm for eight weeks.

[3] = tested on: chronic nummular eczema; conditions: 10% cream of Preparation Example 2, topically twice daily for two days, subject, right lower leg
Protocol: A solution containing a non-amphoteric glutathione derivative was prepared. […] The solution was mixed uniformly with 70 g cream base.

[4] = topically twice daily for four weeks, subject

Row | Structure (SMILES) | clinical evaluation, improvement of rough and scaly skin ([1]; after one week) [%] | appearance of severe dry skin ([1]; after two weeks) | increase in skin thickness [2, 4] | appearance of treated forearm skin [2, 4] | areas of the eczematous lesions reduced [3] [%] | appearance of treated forearm skin ([2]; topically twice daily for eight weeks, one subject per example)
1 | CCOC(=O)CNC(=O)[C@H](CS)NC(=O)CC[C@H](NC(C)=O)C(=O)OCC [N-acetyl-glutathione diethyl ester, N-Acetyl-glutathione diethyl ester] | 90 | smooth and normal-looking |  |  |  | 
2 | N[C@@H](CCC(=O)N[C@@H](CS)C(=O)NCC(=O)O)C(=O)O [glutathione] |  |  | no change | still loose, relatively thin and wrinkled when lifted |  | 
3 | COC(=O)CNC(=O)[C@H](CS)NC(=O)CC[C@H](N)C(=O)OC.Cl [glutathione dimethyl ester, Glutathione dimethyl ester hydrochloride] |  |  | 10% | more firm, smooth, plump and minimally wrinkled when lifted | 75 | more firm, smooth, plump and minimally wrinkled when lifted
